Assays:
Test in all cases: cancer cell growth inhibition (SRB)
Assay type in all cases: cell-based, human
EKVX = settings: Non-Small Cell Lung Cancer
HOP-62 = settings: Non-Small Cell Lung Cancer
HOP-92 = settings: Non-Small Cell Lung Cancer
NCI-H226 = settings: Non-Small Cell Lung Cancer
NCI-H23 = settings: Non-Small Cell Lung Cancer
NCI-H322M = settings: Non-Small Cell Lung Cancer
NCI-H460 = settings: Non-Small Cell Lung Cancer
NCI-H522 = settings: Non-Small Cell Lung Cancer
COLO 205 = settings: Colon Cancer
HCC-2998 = settings: Colon Cancer
HCT-116 = settings: Colon Cancer
HCT-15 = settings: Colon Cancer
SW-620 = settings: Colon Cancer
MCF7 = settings: Breast Cancer
NCI/ADR-RES = settings: Breast Cancer
T-47D = settings: Breast Cancer
IGROV1 = settings: Ovarian Cancer
OVCAR-4 = settings: Ovarian Cancer
OVCAR-5 = settings: Ovarian Cancer
OVCAR-8 = settings: Ovarian Cancer
SK-OV-3 = settings: Ovarian Cancer
CCRF-CEM = settings: Leukemia
HL-60(TB) = settings: Leukemia
MOLT-4 = settings: Leukemia
SR = settings: Leukemia
A498 = settings: Renal Cancer
CAKI-1 = settings: Renal Cancer
RXF 393 = settings: Renal Cancer
M14 = settings: Melanoma
MALME-3M = settings: Melanoma
SK-MEL-2 = settings: Melanoma
SK-MEL-28 = settings: Melanoma
UACC-257 = settings: Melanoma
DU-145 = settings: Prostate Cancer
PC-3 = settings: Prostate Cancer
SF-268 = settings: CNS Cancer
SF-295 = settings: CNS Cancer
U251 = settings: CNS Cancer

CN1C(=O)C(Cc2ccc3ccccc3c2)N=C(c2cn[nH]c2)c2cc(Cl)ccc21 (centres unmarked) [Compound V-38]
growth inhibition of the cancer cells (EKVX): ++ (40%-75% growth inhibition of the cancer cells) | growth inhibition of the cancer cells (HOP-62): +++ (at least 75% growth inhibition of the cancer cells) | growth inhibition of the cancer cells (HOP-92): ++ (40%-75% growth inhibition of the cancer cells) | growth inhibition of the cancer cells (NCI-H226): ++ (40%-75% growth inhibition of the cancer cells) | growth inhibition of the cancer cells (NCI-H23): +++ (at least 75% growth inhibition of the cancer cells) | growth inhibition of the cancer cells (NCI-H322M): + (less than 40% growth inhibition of the cancer cells) | growth inhibition of the cancer cells (NCI-H460): ++ (40%-75% growth inhibition of the cancer cells) | growth inhibition of the cancer cells (NCI-H522): ++ (40%-75% growth inhibition of the cancer cells) | growth inhibition of the cancer cells (COLO 205): ++ (40%-75% growth inhibition of the cancer cells) | growth inhibition of the cancer cells (HCC-2998): +++ (at least 75% growth inhibition of the cancer cells) | growth inhibition of the cancer cells (HCT-116): +++ (at least 75% growth inhibition of the cancer cells) | growth inhibition of the cancer cells (HCT-15): ++ (40%-75% growth inhibition of the cancer cells) | growth inhibition of the cancer cells (SW-620): +++ (at least 75% growth inhibition of the cancer cells) | growth inhibition of the cancer cells (MCF7): ++ (40%-75% growth inhibition of the cancer cells) | growth inhibition of the cancer cells (NCI/ADR-RES): + (less than 40% growth inhibition of the cancer cells) | growth inhibition of the cancer cells (T-47D): + (less than 40% growth inhibition of the cancer cells) | growth inhibition of the cancer cells (IGROV1): +++ (at least 75% growth inhibition of the cancer cells) | growth inhibition of the cancer cells (OVCAR-4): ++ (40%-75% growth inhibition of the cancer cells) | growth inhibition of the cancer cells (OVCAR-5): + (less than 40% growth inhibition of the cancer cells) | growth inhibition of the cancer cells (OVCAR-8): + (less than 40% growth inhibition of the cancer cells) | growth inhibition of the cancer cells (SK-OV-3): + (less than 40% growth inhibition of the cancer cells) | growth inhibition of the cancer cells (CCRF-CEM): + (less than 40% growth inhibition of the cancer cells) | growth inhibition of the cancer cells (HL-60(TB)): + (less than 40% growth inhibition of the cancer cells) | growth inhibition of the cancer cells (MOLT-4): + (less than 40% growth inhibition of the cancer cells) | growth inhibition of the cancer cells (SR): − (an apparent increase in cancer cell growth upon administration of the test compound) | growth inhibition of the cancer cells (A498): +++ (at least 75% growth inhibition of the cancer cells) | growth inhibition of the cancer cells (CAKI-1): + (less than 40% growth inhibition of the cancer cells) | growth inhibition of the cancer cells (RXF 393): +++ (at least 75% growth inhibition of the cancer cells) | growth inhibition of the cancer cells (M14): +++ (at least 75% growth inhibition of the cancer cells) | growth inhibition of the cancer cells (MALME-3M): +++ (at least 75% growth inhibition of the cancer cells) | growth inhibition of the cancer cells (SK-MEL-2): ++ (40%-75% growth inhibition of the cancer cells) | growth inhibition of the cancer cells (SK-MEL-28): +++ (at least 75% growth inhibition of the cancer cells) | growth inhibition of the cancer cells (UACC-257): +++ (at least 75% growth inhibition of the cancer cells) | growth inhibition of the cancer cells (DU-145): +++ (at least 75% growth inhibition of the cancer cells) | growth inhibition of the cancer cells (PC-3): + (less than 40% growth inhibition of the cancer cells) | growth inhibition of the cancer cells (SF-268): +++ (at least 75% growth inhibition of the cancer cells) | growth inhibition of the cancer cells (SF-295): + (less than 40% growth inhibition of the cancer cells) | growth inhibition of the cancer cells (U251): +++ (at least 75% growth inhibition of the cancer cells)

Reference: patent US8604023B2, “1,4-benzodiazepinone compounds and their use in treating cancer” (The Regents of the University of Michigan, priority 2009, dated 2013)
